From patent US20190248830A1, “PROLIPOSOMAL TESTOSTERONE UNDECANOATE FORMULATIONS” (WESTERN UNIVERSITY OF HEALTH SCIENCES, priority 2016, published 2019)
Like-named read-outs stand apart in the source and are kept apart here.

Legend:
[1] = Plasma testosterone concentrations and PK after oral TSX-010, TSX-011, TSX-012 or unformulated TU in female beagle dogs; type: in vivo; settings: TU 7.5 mg/kg
Protocol: Plasma testosterone concentrations after administration of TSX-010 (TU:Lipid, 1:1), TSX-011 (TU:Lipid, 1:2), and TSX-012 (TU:Lipid, 1:4). Unformulated TU, TSX-010, TSX-011, and TSX-012 formulations were orally administered under either fasted or fed conditions. The fasted condition means animals were fasted overnight, dosing was performed the subsequent morning, and food was served two hours post-dosing. Animals were allowed access to food for another two hours, and monitored if they ate the food. The fed condition means animals were fasted overnight, dosing was performed the subsequent morning, and food was served 15 min. post-dosing. Animals were allowed access to food for another two hours, and monitored if they ate the food. For unformulated TU, blood samples were taken by venipuncture of the jugular vein at 0, 0.5, 1, 2, 3, 4, 6, 8, 12, and 24 hours in both fed and fasted conditions. For TU formulations like TSX-010, TSX-011, TSX-012, blood samples were taken by venipuncture of the jugular vein at 0, 4, 6, 8, 10, 12, 14, 16, 18 and 24 hours in fasted conditions and at 0, 1, 2, 4, 6, 8, 10, 12, 16 and 24 hours in fed conditions in femalebeagle dogs. The administered dosages of TU were either 1.875, 3.75, or 7.5 mg/kg (TU/body weight). Plasma testosterone concentration data, was obtained at day 1 for formulations TSX-010, TSX-011, and TSX-012, and days 1 and 7, for unformulated TU.
(§1) In vivo pK data for TSX-010 (TU:Lipid, 1:1), TSX-011 (TU:Lipid, 1:2), and TSX-012 (TU:Lipid, 1:4) in female Beagle dogs. Unformulated TU, TSX-010, TSX-011, and TSX-012 formulations. In addition to tracking plasma T levels, blood samples taken by jugular vein puncture at 0, 0.5, 1, 2, 3, 4, 6, 8, 12, 24 hours, and the following pharmacokinetic (PK) parameters were analyzed for each formulation and unformulated testosterone and testosterone undecanoate. Table 18 contains PK data for unformulated testosterone and testosterone undecanoate at days 1 and 7, under fasted and fed conditions. Tables 19 and 20 contain PK data for the TSX-010, TSX-011, and TSX-012 formulations under fasted (Table 19) and fed (Table 20) conditions.

[2] = Oral PK (plasma T) of TSX-002, TSX-007, TSX-009, unformulated T and TU in female beagle dogs, fasted or fed; type: in vivo; settings: for Av. AUC (plasma T) / Av. Cmax (plasma T) / Av. Tmax / AUC / Cmax / Tmax: oral 7.5 mg/kg; for AUC / Cmax / Tmax: female, beagle, dog, plasma, po, 7.5 mg/kg; for AUC: read-out: Av. AUC (plasma T); for Cmax: read-out: Av. Cmax (plasma T); for Tmax: read-out: Av. Tmax
Protocol: In vivo pK data TSX-002 (native T:Lipid), TSX-007 (native T:Lipid:TPGS (20% w/w of T)), and TSX-009 (TU:Lipid:TPGS (20% w/w of T)). TSX-002, TSX-007, and TSX-009 formulations were orally administered to female beagle dogs under fasted or fed conditions. Fasted condition means animals were fasted overnight, dosing was performed the subsequent morning, and food was served two hours post-dosing. Animals were allowed access to food for another two hours, and monitored if they ate the food. Fed condition means animals were fasted overnight, dosing was performed the subsequent morning, and food was served 15 min. post-dosing. Animals were allowed access to food for another two hours, and monitored if they ate the food. Blood samples were taken, at 0, 0.5, 1, 2, 3, 4, 6, 8, 12 and 24 hours. The administered dosage of TU was 7.5 mg/kg (TU/body weight). Plasma samples were analyzed on Day 1 and Day 7. Pharmacokinetic data for treatment days 1 and 7, under fasting and fed conditions are reported for unformulated T in Table 2; unformulated TU in Table 3; TSX-002 (T:Lipid) in Table 4; TSX-007 (native T:Lipid:TPGS (20% w/w of T)) in Table 5; and TSX-009 (TU:Lipid:TPGS (20% w/w of T)) in Table 6.
as §1

SMILES: CCCCCCCCCCC(=O)O[C@H]1CC[C@H]2[C@@H]3CCC4=CC(=O)CC[C@]4(C)[C@H]3CC[C@]12C [Unformulated TU, testosterone undecanoate]
- Animals with plasma T > 0.5 ng/mL, percent ([1]; fasted, day 1): (33.3%)
- Animals with plasma T > 0.5 ng/mL (responders/treated) ([1]; fasted, day 1, within 24 h): 2/6
- Animals with plasma T > 0.5 ng/mL, percent ([1]; fasted, day 7): (50%)
- Animals with plasma T > 0.5 ng/mL (responders/treated) ([1]; fasted, day 7, within 24 h): 3/6
- Animals with plasma T > 0.5 ng/mL, percent ([1]; fed, day 1): (100%)
- Animals with plasma T > 0.5 ng/mL (responders/treated) ([1]; fed, day 1, within 24 h): 6/6
- Animals with plasma T > 0.5 ng/mL, percent ([1]; fed, day 7): (100%)
- Animals with plasma T > 0.5 ng/mL (responders/treated) ([1]; fed, day 7, within 24 h): 5/6
- Plasma profiles on Day 7 ([2]; Day 7, compared to responders to proliposomal TU formulations): plasma profiles dropped significantly
- Increase in AUC and Cmax in the presence of food ([2]; fed compared to fasted state): two-fold increase in AUC and Cmax
- Av. AUC (plasma T) ([2]; day 1, fasted): 16.63 ± 27.15 ng·h/mL
- Av. Cmax (plasma T) ([2]; day 1, fasted): 2.34 ± 3.94 ng/mL
- Av. Tmax ([2]; day 1, fasted): 6.50 ± 4.43 h
- Av. AUC (plasma T) ([2]; day 1, fed): 108.41 ± 42.73 ng·h/mL
- Av. Cmax (plasma T) ([2]; day 1, fed): 33.83 ± 5.06 ng/mL
- Av. Tmax ([2]; day 1, fed): 4.0 ± 1.55 h
- Av. AUC (plasma T) ([2]; day 7, fasted): 30.88 ± 35.98 ng·h/mL
- Av. Cmax (plasma T) ([2]; day 7, fasted): 4.38 ± 5.12 ng/mL
- Av. Tmax ([2]; day 7, fasted): 8.0 ± 5.66 h
- Av. AUC (plasma T) ([2]; day 7, fed): 20.50 ± 16.59 ng·h/mL
- Av. Cmax (plasma T) ([2]; day 7, fed): 5.37 ± 3.78 ng/mL
- Av. Tmax ([2]; day 7, fed): 4.17 ± 3.25 h

SMILES: C[C@]12CC[C@H]3[C@@H](CCC4=CC(=O)CC[C@@]43C)[C@@H]1CC[C@@H]2O [Unformulated T, testosterone]
- AUC ([2]; day 1, fasted): 28.7 ± 9.44 ng·h/mL
- Cmax ([2]; day 1, fasted): 6.39 ± 2.47 ng/mL
- Tmax ([2]; day 1, fasted): 2.17 ± 0.98 h
- AUC ([2]; day 1, fed): 36.8 ± 19.4 ng·h/mL
- Cmax ([2]; day 1, fed): 9.85 ± 5.8 ng/mL
- Tmax ([2]; day 1, fed): 3.67 ± 2.58 h
- AUC ([2]; day 7, fasted): 11.2 ± 3.28 ng·h/mL
- Cmax ([2]; day 7, fasted): 2.7 ± 0.78 ng/mL
- Tmax ([2]; day 7, fasted): 2.5 ± 1.22 h
- AUC ([2]; day 7, fed): 43 ± 43.9 ng·h/mL
- Cmax ([2]; day 7, fed): 13 ± 13.6 ng/mL
- Tmax ([2]; day 7, fed): 3.5 ± 4.42 h
